Source: ChEMBL document CHEMBL1157938, “Cytotoxicity and inhibition of DNA topoisomerase I of polyhydroxylated triterpenoids and triterpenoid glycosides” (Bioorg Med Chem Lett, 2010)

Columns and labels:
[1] = Inhibition of Leishmania donovani DNA topoisomerase 1 preincubated before addition of DNA
DNA topoisomerase 1 [2] = target: T1, DNA topoisomerase 1 (Rattus norvegicus, UniProt Q9WUL0); assay: Inhibition of rat liver DNA topoisomerase 1 preincubated before addition of DNA
T1 sequence (Q9WUL0 whole entry): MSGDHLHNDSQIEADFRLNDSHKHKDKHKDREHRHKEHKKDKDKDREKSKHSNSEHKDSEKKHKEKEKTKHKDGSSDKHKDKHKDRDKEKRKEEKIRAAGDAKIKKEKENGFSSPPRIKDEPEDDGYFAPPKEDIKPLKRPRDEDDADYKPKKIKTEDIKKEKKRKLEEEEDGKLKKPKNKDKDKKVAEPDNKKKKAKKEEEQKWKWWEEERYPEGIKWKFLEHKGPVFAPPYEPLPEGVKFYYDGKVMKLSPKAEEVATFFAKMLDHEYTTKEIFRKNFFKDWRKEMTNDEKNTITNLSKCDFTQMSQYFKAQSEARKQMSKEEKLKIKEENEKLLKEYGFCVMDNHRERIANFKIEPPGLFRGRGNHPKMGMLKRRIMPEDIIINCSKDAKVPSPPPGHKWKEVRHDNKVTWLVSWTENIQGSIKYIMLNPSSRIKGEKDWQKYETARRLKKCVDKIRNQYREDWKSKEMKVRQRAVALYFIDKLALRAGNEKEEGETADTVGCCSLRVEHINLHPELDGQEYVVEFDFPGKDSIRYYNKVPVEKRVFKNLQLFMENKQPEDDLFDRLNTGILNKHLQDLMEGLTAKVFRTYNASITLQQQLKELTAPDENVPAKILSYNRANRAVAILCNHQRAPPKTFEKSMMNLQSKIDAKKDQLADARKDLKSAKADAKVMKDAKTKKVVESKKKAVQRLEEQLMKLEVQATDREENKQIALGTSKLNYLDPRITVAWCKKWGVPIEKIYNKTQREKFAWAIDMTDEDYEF

DNA topoisomerase 1 [3] = target: T1, DNA topoisomerase 1; assay: Inhibition of rat liver DNA topoisomerase 1 treated simultaneously with DNA
[4] = Inhibition of Leishmania donovani DNA topoisomerase 1 treated simultaneously with DNA

Question: For `O=c1cc(-c2ccc(O)c(O)c2)oc2cc(O)cc(O)c12` [LUTEOLIN], which IC50 [1] is on record?
Answer: The IC50 was 2500 nM.

Question: And the IC50 (DNA topoisomerase 1 [2])?
Answer: The IC50 was 660 nM.

Question: What about the IC50 (DNA topoisomerase 1 [3]) of the same compound?
Answer: Its IC50 is 5 µM.

Question: And the IC50 [4]?
Answer: Its IC50 is 14 µM.
